Measured values from article PMC10150366, “Discovery of an In Vivo Chemical Probe for BCL6 Inhibition by Optimization of Tricyclic Quinolinones” (Journal of Medicinal Chemistry, 2023).

Assays:
CHRM3 [1] = target: T1, CHRM3 (Homo sapiens, UniProt P20309); experiment: SAFETYscan Calcium Flux CHRM3 Agonist; format: cell-based
Text: (§1) Supplement jm3c00155_si_002.xlsx, sheet "SAFETYScan" | column: RC50 (uM); Max Response

COX1 = COX1 (Homo sapiens, UniProt P23219); experiment: SAFETYscan Enzymatic COX1 Inhibitor; format: biochemical
Chain of COX1 (P23219 24-599): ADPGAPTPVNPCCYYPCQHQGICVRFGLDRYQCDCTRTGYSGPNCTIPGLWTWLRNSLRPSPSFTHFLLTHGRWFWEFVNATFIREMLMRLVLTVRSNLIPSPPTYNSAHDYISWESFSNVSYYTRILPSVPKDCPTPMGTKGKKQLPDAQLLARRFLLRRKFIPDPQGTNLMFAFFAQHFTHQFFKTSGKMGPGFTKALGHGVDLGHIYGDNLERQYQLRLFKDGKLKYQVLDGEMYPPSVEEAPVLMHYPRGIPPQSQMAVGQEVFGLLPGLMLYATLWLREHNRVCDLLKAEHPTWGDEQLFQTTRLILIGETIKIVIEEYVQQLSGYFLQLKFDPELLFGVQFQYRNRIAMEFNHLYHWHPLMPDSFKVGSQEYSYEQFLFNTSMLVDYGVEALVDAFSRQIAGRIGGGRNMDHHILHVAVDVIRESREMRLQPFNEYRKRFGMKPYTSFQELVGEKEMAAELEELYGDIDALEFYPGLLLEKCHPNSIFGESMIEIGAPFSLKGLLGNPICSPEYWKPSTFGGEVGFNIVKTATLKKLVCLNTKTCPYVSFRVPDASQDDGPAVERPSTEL
Text: Supplement jm3c00155_si_002.xlsx, sheet "SAFETYScan" | column: RC50 (uM); Hill; Max Response

CHRM3 [2] = target: T1, CHRM3; experiment: SAFETYscan Calcium Flux CHRM3 Antagonist; format: cell-based
Text: as §1

OPRK1 = OPRK1 (Homo sapiens, UniProt P41145); experiment: SAFETYscan cAMP OPRK1 Agonist; format: cell-based
Text: as §1

CCKAR = target: T2, CCKAR (Homo sapiens, UniProt P32238); experiment: SAFETYscan Calcium Flux CCKAR Antagonist; format: cell-based
T2 sequence (P32238 1-428): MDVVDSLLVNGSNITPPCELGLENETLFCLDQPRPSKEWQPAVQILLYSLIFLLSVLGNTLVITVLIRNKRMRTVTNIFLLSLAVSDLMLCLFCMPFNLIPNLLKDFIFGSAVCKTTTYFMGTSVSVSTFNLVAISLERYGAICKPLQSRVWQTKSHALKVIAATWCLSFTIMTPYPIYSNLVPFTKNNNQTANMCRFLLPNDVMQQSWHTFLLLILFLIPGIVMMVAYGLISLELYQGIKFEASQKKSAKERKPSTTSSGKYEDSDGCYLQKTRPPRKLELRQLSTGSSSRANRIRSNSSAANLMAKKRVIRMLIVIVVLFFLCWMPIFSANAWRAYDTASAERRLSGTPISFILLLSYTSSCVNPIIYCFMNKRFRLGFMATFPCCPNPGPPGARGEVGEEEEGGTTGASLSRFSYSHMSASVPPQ
Text: as §1

PDE3A = PDE3A (Homo sapiens, UniProt Q14432); experiment: SAFETYscan Enzymatic PDE3A Inhibitor; format: biochemical
Text: as §1

ADRB2 = ADRB2 (Homo sapiens, UniProt P07550); experiment: SAFETYscan cAMP ADRB2 Agonist; format: cell-based
Text: as §1

HTR1B = HTR1B (Homo sapiens, UniProt P28222); experiment: SAFETYscan cAMP HTR1B Antagonist; format: cell-based
Text: as §1

MAOA = MAOA (Homo sapiens, UniProt P21397); experiment: SAFETYscan Enzymatic MAOA Inhibitor; format: biochemical
Text: as §1

PDE4D2 = PDE4D2 (Homo sapiens, UniProt Q08499); experiment: SAFETYscan Enzymatic PDE4D2 Inhibitor; format: biochemical
Chain of PDE4D2 (Q08499 303-809 limits assumed): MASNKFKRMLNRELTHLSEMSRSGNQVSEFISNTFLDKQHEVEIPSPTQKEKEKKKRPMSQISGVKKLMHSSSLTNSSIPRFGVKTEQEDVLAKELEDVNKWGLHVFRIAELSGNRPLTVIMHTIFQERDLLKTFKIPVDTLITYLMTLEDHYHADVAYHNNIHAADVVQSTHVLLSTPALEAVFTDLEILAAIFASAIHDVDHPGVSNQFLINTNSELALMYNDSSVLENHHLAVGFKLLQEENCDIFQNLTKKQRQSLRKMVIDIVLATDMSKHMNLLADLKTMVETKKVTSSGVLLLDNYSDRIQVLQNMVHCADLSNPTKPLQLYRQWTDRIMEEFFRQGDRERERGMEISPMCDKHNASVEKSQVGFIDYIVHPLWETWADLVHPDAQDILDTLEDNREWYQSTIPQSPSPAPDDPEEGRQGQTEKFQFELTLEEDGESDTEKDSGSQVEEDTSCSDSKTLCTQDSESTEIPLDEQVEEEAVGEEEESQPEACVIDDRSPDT
Text: as §1

HTR3A = target: T3, HTR3A (Homo sapiens, UniProt P46098); experiment: SAFETYscan Ion Channel HTR3A Opener; format: cell-based
T3 sequence (P46098 24-478): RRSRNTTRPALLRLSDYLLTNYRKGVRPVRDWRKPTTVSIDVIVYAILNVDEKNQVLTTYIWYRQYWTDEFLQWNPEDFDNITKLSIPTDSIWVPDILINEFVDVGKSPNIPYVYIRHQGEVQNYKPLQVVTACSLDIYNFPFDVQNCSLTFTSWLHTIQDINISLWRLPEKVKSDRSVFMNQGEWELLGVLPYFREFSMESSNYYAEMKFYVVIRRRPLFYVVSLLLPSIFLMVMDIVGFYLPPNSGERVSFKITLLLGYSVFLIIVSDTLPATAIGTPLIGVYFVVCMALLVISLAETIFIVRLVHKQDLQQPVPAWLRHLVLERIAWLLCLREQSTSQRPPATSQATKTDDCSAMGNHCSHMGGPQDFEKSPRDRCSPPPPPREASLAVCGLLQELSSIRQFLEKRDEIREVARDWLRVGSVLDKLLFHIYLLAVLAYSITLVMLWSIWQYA
Text: as §1

AVPR1A = AVPR1A (Homo sapiens, UniProt P37288); experiment: SAFETYscan Calcium Flux AVPR1A Agonist; format: cell-based
Text: as §1

GR = target: T4, GR (Homo sapiens, UniProt P04150); experiment: SAFETYscan NHR Protein Interaction GR Agonist; format: cell-based
T4 sequence (P04150 1-777): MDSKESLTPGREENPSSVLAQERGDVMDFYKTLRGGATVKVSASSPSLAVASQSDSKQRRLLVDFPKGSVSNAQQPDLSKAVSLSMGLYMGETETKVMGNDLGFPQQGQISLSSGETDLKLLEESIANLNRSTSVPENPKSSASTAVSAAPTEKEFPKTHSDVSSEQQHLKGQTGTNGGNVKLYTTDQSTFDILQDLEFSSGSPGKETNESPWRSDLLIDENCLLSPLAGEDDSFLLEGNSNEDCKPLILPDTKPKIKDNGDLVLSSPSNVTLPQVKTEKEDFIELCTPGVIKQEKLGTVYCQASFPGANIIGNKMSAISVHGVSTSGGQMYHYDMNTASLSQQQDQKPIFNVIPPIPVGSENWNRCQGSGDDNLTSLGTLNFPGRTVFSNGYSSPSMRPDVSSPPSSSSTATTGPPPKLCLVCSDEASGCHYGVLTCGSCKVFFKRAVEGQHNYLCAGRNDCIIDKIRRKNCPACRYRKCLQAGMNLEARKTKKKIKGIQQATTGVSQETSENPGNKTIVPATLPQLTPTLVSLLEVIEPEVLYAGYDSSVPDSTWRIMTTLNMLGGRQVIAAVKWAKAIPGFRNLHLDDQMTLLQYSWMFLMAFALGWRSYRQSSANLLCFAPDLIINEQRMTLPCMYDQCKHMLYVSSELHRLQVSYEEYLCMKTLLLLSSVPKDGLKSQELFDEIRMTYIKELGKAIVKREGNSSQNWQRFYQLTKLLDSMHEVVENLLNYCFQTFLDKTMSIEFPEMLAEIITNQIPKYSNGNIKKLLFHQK
Text: as §1

NAV1.5 = NAV1.5 (Homo sapiens, UniProt Q14524); experiment: SAFETYscan Ion Channel NAV1.5 Blocker; format: cell-based
Chain of NAV1.5 (Q14524 whole entry): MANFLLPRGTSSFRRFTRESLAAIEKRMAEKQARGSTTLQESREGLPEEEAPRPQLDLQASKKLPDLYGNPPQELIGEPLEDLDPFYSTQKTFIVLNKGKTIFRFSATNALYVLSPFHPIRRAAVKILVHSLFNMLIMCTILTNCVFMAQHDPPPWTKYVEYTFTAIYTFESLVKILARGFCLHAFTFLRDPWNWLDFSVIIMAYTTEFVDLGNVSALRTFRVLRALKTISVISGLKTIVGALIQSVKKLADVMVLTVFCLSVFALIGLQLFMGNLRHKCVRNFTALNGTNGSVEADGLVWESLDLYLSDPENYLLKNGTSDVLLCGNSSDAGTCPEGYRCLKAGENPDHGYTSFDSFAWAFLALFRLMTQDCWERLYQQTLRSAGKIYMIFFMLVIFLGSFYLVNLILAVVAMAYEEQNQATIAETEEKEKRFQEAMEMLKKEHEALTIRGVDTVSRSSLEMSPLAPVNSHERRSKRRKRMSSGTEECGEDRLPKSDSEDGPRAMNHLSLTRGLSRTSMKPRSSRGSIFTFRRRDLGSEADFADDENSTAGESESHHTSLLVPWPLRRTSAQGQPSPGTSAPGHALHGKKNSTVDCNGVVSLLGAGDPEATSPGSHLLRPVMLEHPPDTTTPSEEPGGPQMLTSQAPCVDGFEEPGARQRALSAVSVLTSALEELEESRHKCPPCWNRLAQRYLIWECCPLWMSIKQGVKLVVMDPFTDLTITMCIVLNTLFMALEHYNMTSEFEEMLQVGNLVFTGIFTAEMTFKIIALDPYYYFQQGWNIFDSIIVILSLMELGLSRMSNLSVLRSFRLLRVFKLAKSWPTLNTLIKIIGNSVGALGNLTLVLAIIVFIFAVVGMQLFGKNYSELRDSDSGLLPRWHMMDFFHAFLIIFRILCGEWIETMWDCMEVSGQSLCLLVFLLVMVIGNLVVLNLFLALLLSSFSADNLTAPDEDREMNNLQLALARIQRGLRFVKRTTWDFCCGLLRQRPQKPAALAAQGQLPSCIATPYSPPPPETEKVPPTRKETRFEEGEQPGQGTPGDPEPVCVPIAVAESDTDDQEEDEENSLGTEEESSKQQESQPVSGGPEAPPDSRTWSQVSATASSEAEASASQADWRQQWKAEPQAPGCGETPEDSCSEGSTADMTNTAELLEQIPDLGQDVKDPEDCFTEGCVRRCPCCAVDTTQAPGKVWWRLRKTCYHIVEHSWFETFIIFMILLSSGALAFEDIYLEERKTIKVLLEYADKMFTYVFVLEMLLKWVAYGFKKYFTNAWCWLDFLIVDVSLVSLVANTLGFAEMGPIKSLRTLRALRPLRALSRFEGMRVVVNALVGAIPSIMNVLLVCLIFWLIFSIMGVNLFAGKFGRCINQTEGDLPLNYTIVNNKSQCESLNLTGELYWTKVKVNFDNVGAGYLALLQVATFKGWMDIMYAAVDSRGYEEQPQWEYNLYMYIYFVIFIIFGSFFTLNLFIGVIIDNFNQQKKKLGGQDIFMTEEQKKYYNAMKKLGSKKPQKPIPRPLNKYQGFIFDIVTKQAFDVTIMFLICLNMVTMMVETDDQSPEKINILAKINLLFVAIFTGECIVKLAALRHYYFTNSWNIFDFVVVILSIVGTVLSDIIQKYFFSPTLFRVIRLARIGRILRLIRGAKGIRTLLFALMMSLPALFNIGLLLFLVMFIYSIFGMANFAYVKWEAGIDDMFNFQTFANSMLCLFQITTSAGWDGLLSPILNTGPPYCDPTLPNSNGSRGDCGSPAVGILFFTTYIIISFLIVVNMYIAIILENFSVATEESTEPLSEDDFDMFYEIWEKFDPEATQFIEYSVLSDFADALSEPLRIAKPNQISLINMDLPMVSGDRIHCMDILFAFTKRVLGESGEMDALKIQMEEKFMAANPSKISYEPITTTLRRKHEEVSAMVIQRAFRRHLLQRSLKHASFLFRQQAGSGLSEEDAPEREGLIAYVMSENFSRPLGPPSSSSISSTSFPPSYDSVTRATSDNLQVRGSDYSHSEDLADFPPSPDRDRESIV
Text: as §1

OPRD1 = OPRD1 (Homo sapiens, UniProt P41143); experiment: SAFETYscan cAMP OPRD1 Agonist; format: cell-based
Text: as §1

GABAA = GABAA (Homo sapiens, UniProt P14867+P18507+P47870); experiment: SAFETYscan Ion Channel GABAA Opener; format: cell-based
Chain of GABAA (P14867 28-456): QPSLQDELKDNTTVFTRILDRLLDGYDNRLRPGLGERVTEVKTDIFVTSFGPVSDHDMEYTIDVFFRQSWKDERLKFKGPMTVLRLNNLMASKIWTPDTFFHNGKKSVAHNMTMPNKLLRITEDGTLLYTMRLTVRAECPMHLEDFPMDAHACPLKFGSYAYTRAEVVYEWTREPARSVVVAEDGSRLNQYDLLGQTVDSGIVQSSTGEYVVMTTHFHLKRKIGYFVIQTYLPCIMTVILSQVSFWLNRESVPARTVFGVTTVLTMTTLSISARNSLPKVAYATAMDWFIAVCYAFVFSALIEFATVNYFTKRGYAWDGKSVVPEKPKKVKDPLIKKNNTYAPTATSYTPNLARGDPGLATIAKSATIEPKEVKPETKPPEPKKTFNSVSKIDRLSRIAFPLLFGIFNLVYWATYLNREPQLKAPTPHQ
Chain of GABAA (P47870 26-512): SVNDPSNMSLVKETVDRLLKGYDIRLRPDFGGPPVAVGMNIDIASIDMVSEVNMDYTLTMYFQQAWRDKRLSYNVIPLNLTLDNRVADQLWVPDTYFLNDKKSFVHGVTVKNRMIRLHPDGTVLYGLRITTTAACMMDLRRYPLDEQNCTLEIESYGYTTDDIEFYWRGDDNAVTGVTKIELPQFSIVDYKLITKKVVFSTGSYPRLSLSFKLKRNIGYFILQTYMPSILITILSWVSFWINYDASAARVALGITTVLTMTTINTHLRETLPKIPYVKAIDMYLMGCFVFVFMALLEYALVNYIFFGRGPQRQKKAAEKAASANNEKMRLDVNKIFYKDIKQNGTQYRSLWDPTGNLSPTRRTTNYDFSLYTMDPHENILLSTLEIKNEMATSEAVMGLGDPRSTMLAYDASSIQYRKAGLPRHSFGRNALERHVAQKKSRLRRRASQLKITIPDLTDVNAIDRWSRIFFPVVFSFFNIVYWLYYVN
Chain of GABAA (P18507 40-475): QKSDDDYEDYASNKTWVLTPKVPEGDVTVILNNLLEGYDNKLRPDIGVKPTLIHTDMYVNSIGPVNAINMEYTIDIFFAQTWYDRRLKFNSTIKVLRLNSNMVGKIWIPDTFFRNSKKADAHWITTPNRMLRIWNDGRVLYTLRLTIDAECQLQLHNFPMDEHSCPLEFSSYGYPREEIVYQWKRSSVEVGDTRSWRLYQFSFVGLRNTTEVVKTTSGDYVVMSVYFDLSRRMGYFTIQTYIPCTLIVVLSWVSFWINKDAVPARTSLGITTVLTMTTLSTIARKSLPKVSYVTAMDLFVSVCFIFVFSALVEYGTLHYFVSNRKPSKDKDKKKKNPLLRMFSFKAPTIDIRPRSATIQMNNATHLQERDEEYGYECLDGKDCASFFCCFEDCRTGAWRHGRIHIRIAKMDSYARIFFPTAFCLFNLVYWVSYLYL
Text: as §1

T1 sequence (P20309 whole entry): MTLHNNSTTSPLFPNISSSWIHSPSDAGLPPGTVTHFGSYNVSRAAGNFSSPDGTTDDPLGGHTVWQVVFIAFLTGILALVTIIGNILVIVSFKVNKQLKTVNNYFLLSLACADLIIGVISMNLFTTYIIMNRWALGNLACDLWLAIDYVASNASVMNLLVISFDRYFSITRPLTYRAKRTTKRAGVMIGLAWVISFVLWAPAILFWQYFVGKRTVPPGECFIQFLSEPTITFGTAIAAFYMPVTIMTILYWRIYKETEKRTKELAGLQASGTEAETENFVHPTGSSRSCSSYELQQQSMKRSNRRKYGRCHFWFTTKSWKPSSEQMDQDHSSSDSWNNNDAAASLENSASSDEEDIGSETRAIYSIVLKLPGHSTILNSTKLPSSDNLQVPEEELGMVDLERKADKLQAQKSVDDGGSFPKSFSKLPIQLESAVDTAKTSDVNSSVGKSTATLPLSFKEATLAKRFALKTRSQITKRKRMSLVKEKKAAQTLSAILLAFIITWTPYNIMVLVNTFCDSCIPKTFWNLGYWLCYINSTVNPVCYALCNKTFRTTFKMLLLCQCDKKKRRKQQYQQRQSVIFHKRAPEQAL

Question: Which results are given for `Cn1c(=O)c2c(c3cc(Nc4ccnc(F)c4Cl)ccc31)N[C@@H](C1CC1)C(F)(F)CO2` [compound 17, (S)-10-((3-chloro-2-fluoropyridin-4-yl)amino)-2-cyclopropyl-3,3-difluoro-7-methyl-1,2,3,4-tetrahydro-[1,4]oxazepino[2,3-c]quinolin-6(7H)-one]?
Answer: EC50 (CHRM3 [1]): > 10 µM; Emax (CHRM3 [1]; CHRM3, Calcium Flux, Agonist, read-out: Max Response): 0%; Hill (COX1): 3.28; Emax (COX1; read-out: Max Response): 93.1%; IC50 (COX1; read-out: RC50 (IC50)): 4.54 µM; IC50 (CHRM3 [2]): > 10 µM; Emax (CHRM3 [2]; CHRM3, Calcium Flux, Antagonist, read-out: Max Response): 1.21%; EC50 (OPRK1): > 10 µM; Emax (OPRK1; OPRK1, cAMP, Agonist, read-out: Max Response): 21.1%; Emax (CCKAR; read-out: Max Response): 0%; IC50 (CCKAR; read-out: RC50 (IC50)): > 10 µM; Emax (PDE3A; read-out: Max Response): 2.67%; IC50 (PDE3A; read-out: RC50 (IC50)): > 10 µM; Emax (ADRB2; read-out: Max Response): 0%; EC50 (ADRB2; read-out: RC50 (EC50)): > 10 µM; IC50 (HTR1B): > 10 µM; Emax (HTR1B; HTR1B, cAMP, Antagonist, read-out: Max Response): 0%; Emax (MAOA; read-out: Max Response): 0%; IC50 (MAOA; read-out: RC50 (IC50)): > 10 µM; Emax (PDE4D2; read-out: Max Response): 15%; IC50 (PDE4D2; read-out: RC50 (IC50)): > 10 µM; EC50 (HTR3A): > 10 µM; Emax (HTR3A; HTR3A, Ion Channel, Opener, read-out: Max Response): 0%; Emax (AVPR1A; read-out: Max Response): 0%; EC50 (AVPR1A; read-out: RC50 (EC50)): > 10 µM; Emax (GR; read-out: Max Response): 0%; EC50 (GR; read-out: RC50 (EC50)): > 10 µM; IC50 (NAV1.5): > 10 µM; Emax (NAV1.5; NAV1.5, Ion Channel, Blocker, read-out: Max Response): 2.06%; EC50 (OPRD1): > 10 µM; Emax (OPRD1; OPRD1, cAMP, Agonist, read-out: Max Response): 23.6%; EC50 (GABAA): > 10 µM; Emax (GABAA; GABAA, Ion Channel, Opener, read-out: Max Response): 1.24%
